Data reported in the supplement of paper PMC10307832.

Assays:
Assay in all cases: relative viability (nuclei count vs DMSO), 5 days (fraction); higher = more cells survive
XMD14-99 + OSI-027 = compound: CN1CCN(CC1)C2=CC(=C(C=C2)NC3=NC(=C(S3)C(=O)C4=C(C=CC=C4Cl)Cl)N)OC [XMD14-99] + COc1cccc2cc(-c3nc([C@H]4CC[C@H](C(=O)O)CC4)n4ncnc(N)c34)[nH]c12 [OSI-027] (partner 0.5 µM)
In short: (§1)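 Relative viability was taken as the ratio of nuclei in treated wells to nuclei in vehicle wells. Lung cancer cell lines in 1536-well plates received compounds by pin tool one day after seeding, either one drug alone or a fixed anchor-drug dose plus five library-drug doses (not always all listed) in √10 steps. Nuclei were counted on 4× images after 5 days of treatment, and values are medians of duplicate plates.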

XMD14-99 + Crizotinib = compound: CN1CCN(CC1)C2=CC(=C(C=C2)NC3=NC(=C(S3)C(=O)C4=C(C=CC=C4Cl)Cl)N)OC [XMD14-99] + C[C@@H](Oc1cc(-c2cnn(C3CCNCC3)c2)cnc1N)c1c(Cl)ccc(F)c1Cl [Crizotinib] (partner 1 µM)
In short: as §1

XMD14-99 + Decitabine = compound: CN1CCN(CC1)C2=CC(=C(C=C2)NC3=NC(=C(S3)C(=O)C4=C(C=CC=C4Cl)Cl)N)OC [XMD14-99] + Nc1ncn([C@H]2C[C@H](O)[C@@H](CO)O2)c(=O)n1 [Decitabine] (partner 2 µM)
In short: as §1

AZD1208 + OSI-027 = compound: N[C@@H]1CCCN(c2c(/C=C3\SC(=O)NC3=O)cccc2-c2ccccc2)C1 [AZD1208] + COc1cccc2cc(-c3nc([C@H]4CC[C@H](C(=O)O)CC4)n4ncnc(N)c34)[nH]c12 [OSI-027] (partner 0.5 µM)
In short: as §1

ChaGo-K-1 showed a relative viability (XMD14-99 + OSI-027; first compound 0.08 µM) of 0.554, a relative viability (XMD14-99 + OSI-027; first compound 0.8 µM) of 0.658 and a relative viability (XMD14-99 + OSI-027; first compound 2.53 µM) of 0.612. It also gave a relative viability (XMD14-99 + OSI-027; first compound 8 µM) of 0.472, a relative viability (XMD14-99 + Crizotinib; first compound 0.08 µM) of 1.1 and a relative viability (XMD14-99 + Crizotinib; first compound 0.8 µM) of 1.14. It also gave a relative viability (XMD14-99 + Crizotinib; first compound 2.53 µM) of 1.19, a relative viability (XMD14-99 + Crizotinib; first compound 8 µM) of 0.92 and a relative viability (XMD14-99 + Decitabine; first compound 0.08 µM) of 0.52. The relative viability (XMD14-99 + Decitabine; first compound 0.8 µM) was 0.531, the relative viability (XMD14-99 + Decitabine; first compound 2.53 µM) was 0.5 and the relative viability (XMD14-99 + Decitabine; first compound 8 µM) was 0.481. It also gave a relative viability (AZD1208 + OSI-027; first compound 0.08 µM) of 0.579, a relative viability (AZD1208 + OSI-027; first compound 0.253 µM) of 0.546 and a relative viability (AZD1208 + OSI-027; first compound 0.8 µM) of 0.49. For the same cell line, the relative viability (AZD1208 + OSI-027; first compound 2.53 µM) was 0.421 and the relative viability (AZD1208 + OSI-027; first compound 8 µM) was 0.402.
Cell Line NCI-H1650 has a relative viability (XMD14-99 + OSI-027; first compound 0.08 µM) of 0.705, a relative viability (XMD14-99 + OSI-027; first compound 0.8 µM) of 0.7 and a relative viability (XMD14-99 + OSI-027; first compound 2.53 µM) of 0.49. It also gave a relative viability (XMD14-99 + OSI-027; first compound 8 µM) of 0.395, a relative viability (XMD14-99 + Crizotinib; first compound 0.08 µM) of 1 and a relative viability (XMD14-99 + Crizotinib; first compound 0.8 µM) of 0.951. For the same cell line, the relative viability (XMD14-99 + Crizotinib; first compound 2.53 µM) was 1.09, the relative viability (XMD14-99 + Crizotinib; first compound 8 µM) was 0.849 and the relative viability (XMD14-99 + Decitabine; first compound 0.08 µM) was 0.393. The relative viability (XMD14-99 + Decitabine; first compound 0.8 µM) was 0.418, the relative viability (XMD14-99 + Decitabine; first compound 2.53 µM) was 0.41 and the relative viability (XMD14-99 + Decitabine; first compound 8 µM) was 0.338. For the same cell line, the relative viability (AZD1208 + OSI-027; first compound 0.08 µM) was 0.592, the relative viability (AZD1208 + OSI-027; first compound 0.253 µM) was 0.516 and the relative viability (AZD1208 + OSI-027; first compound 0.8 µM) was 0.568. The relative viability (AZD1208 + OSI-027; first compound 2.53 µM) was 0.434 and the relative viability (AZD1208 + OSI-027; first compound 8 µM) was 0.473.
NCI-H2023 showed a relative viability (XMD14-99 + OSI-027; first compound 0.08 µM) of 0.42, a relative viability (XMD14-99 + OSI-027; first compound 0.8 µM) of 0.427 and a relative viability (XMD14-99 + OSI-027; first compound 2.53 µM) of 0.299. The relative viability (XMD14-99 + OSI-027; first compound 8 µM) was 0.209, the relative viability (XMD14-99 + Crizotinib; first compound 0.08 µM) was 0.731 and the relative viability (XMD14-99 + Crizotinib; first compound 0.8 µM) was 0.648. The relative viability (XMD14-99 + Crizotinib; first compound 2.53 µM) was 0.667, the relative viability (XMD14-99 + Crizotinib; first compound 8 µM) was 0.495 and the relative viability (XMD14-99 + Decitabine; first compound 0.08 µM) was 0.222. For the same cell line, the relative viability (XMD14-99 + Decitabine; first compound 0.8 µM) was 0.212, the relative viability (XMD14-99 + Decitabine; first compound 2.53 µM) was 0.228 and the relative viability (XMD14-99 + Decitabine; first compound 8 µM) was 0.166. For the same cell line, the relative viability (AZD1208 + OSI-027; first compound 0.08 µM) was 0.342, the relative viability (AZD1208 + OSI-027; first compound 0.253 µM) was 0.339 and the relative viability (AZD1208 + OSI-027; first compound 0.8 µM) was 0.324. The relative viability (AZD1208 + OSI-027; first compound 2.53 µM) was 0.316 and the relative viability (AZD1208 + OSI-027; first compound 8 µM) was 0.253.
Work on LOU-NH91 yielded a relative viability (XMD14-99 + OSI-027; first compound 0.08 µM) of 0.744, a relative viability (XMD14-99 + OSI-027; first compound 0.8 µM) of 0.7 and a relative viability (XMD14-99 + OSI-027; first compound 2.53 µM) of 0.73. For the same cell line, the relative viability (XMD14-99 + OSI-027; first compound 8 µM) was 0.63, the relative viability (XMD14-99 + Crizotinib; first compound 0.08 µM) was 0.789 and the relative viability (XMD14-99 + Crizotinib; first compound 0.8 µM) was 0.743. The relative viability (XMD14-99 + Crizotinib; first compound 2.53 µM) was 0.717, the relative viability (XMD14-99 + Crizotinib; first compound 8 µM) was 0.698 and the relative viability (XMD14-99 + Decitabine; first compound 0.08 µM) was 0.868. The relative viability (XMD14-99 + Decitabine; first compound 0.8 µM) was 0.853, the relative viability (XMD14-99 + Decitabine; first compound 2.53 µM) was 0.807 and the relative viability (XMD14-99 + Decitabine; first compound 8 µM) was 0.776. The relative viability (AZD1208 + OSI-027; first compound 0.08 µM) was 0.737, the relative viability (AZD1208 + OSI-027; first compound 0.253 µM) was 0.577 and the relative viability (AZD1208 + OSI-027; first compound 0.8 µM) was 0.631. It also gave a relative viability (AZD1208 + OSI-027; first compound 2.53 µM) of 0.694 and a relative viability (AZD1208 + OSI-027; first compound 8 µM) of 0.619.
Work on NCI-H3122 yielded a relative viability (XMD14-99 + OSI-027; first compound 0.08 µM) of 0.815, a relative viability (XMD14-99 + OSI-027; first compound 0.8 µM) of 0.811 and a relative viability (XMD14-99 + OSI-027; first compound 2.53 µM) of 0.623. The relative viability (XMD14-99 + OSI-027; first compound 8 µM) was 0.163, the relative viability (XMD14-99 + Crizotinib; first compound 0.08 µM) was 0.267 and the relative viability (XMD14-99 + Crizotinib; first compound 0.8 µM) was 0.229. It also gave a relative viability (XMD14-99 + Crizotinib; first compound 2.53 µM) of 0.262, a relative viability (XMD14-99 + Crizotinib; first compound 8 µM) of 0.251 and a relative viability (XMD14-99 + Decitabine; first compound 0.08 µM) of 0.405. For the same cell line, the relative viability (XMD14-99 + Decitabine; first compound 0.8 µM) was 0.359, the relative viability (XMD14-99 + Decitabine; first compound 2.53 µM) was 0.333 and the relative viability (XMD14-99 + Decitabine; first compound 8 µM) was 0.283. It also gave a relative viability (AZD1208 + OSI-027; first compound 0.08 µM) of 0.842, a relative viability (AZD1208 + OSI-027; first compound 0.253 µM) of 0.856 and a relative viability (AZD1208 + OSI-027; first compound 0.8 µM) of 0.768. It also gave a relative viability (AZD1208 + OSI-027; first compound 2.53 µM) of 0.862 and a relative viability (AZD1208 + OSI-027; first compound 8 µM) of 0.606.
LCLC-97TM1 was tested, and the relative viability (XMD14-99 + OSI-027; first compound 0.08 µM) was 0.412, the relative viability (XMD14-99 + OSI-027; first compound 0.8 µM) was 0.452 and the relative viability (XMD14-99 + OSI-027; first compound 2.53 µM) was 0.555. The relative viability (XMD14-99 + OSI-027; first compound 8 µM) was 0.442, the relative viability (XMD14-99 + Crizotinib; first compound 0.08 µM) was 0.397 and the relative viability (XMD14-99 + Crizotinib; first compound 0.8 µM) was 0.364. It also gave a relative viability (XMD14-99 + Crizotinib; first compound 2.53 µM) of 0.303, a relative viability (XMD14-99 + Crizotinib; first compound 8 µM) of 0.222 and a relative viability (XMD14-99 + Decitabine; first compound 0.08 µM) of 0.226. It also gave a relative viability (XMD14-99 + Decitabine; first compound 0.8 µM) of 0.233, a relative viability (XMD14-99 + Decitabine; first compound 2.53 µM) of 0.236 and a relative viability (XMD14-99 + Decitabine; first compound 8 µM) of 0.255. It also gave a relative viability (AZD1208 + OSI-027; first compound 0.08 µM) of 0.456, a relative viability (AZD1208 + OSI-027; first compound 0.253 µM) of 0.476 and a relative viability (AZD1208 + OSI-027; first compound 0.8 µM) of 0.344. It also gave a relative viability (AZD1208 + OSI-027; first compound 2.53 µM) of 0.354 and a relative viability (AZD1208 + OSI-027; first compound 8 µM) of 0.29.
NCI-H647 showed a relative viability (XMD14-99 + OSI-027; first compound 0.08 µM) of 0.621, a relative viability (XMD14-99 + OSI-027; first compound 0.8 µM) of 0.71 and a relative viability (XMD14-99 + OSI-027; first compound 2.53 µM) of 0.746. For the same cell line, the relative viability (XMD14-99 + OSI-027; first compound 8 µM) was 0.605, the relative viability (XMD14-99 + Crizotinib; first compound 0.08 µM) was 0.948 and the relative viability (XMD14-99 + Crizotinib; first compound 0.8 µM) was 0.928. For the same cell line, the relative viability (XMD14-99 + Crizotinib; first compound 2.53 µM) was 1.01, the relative viability (XMD14-99 + Crizotinib; first compound 8 µM) was 0.741 and the relative viability (XMD14-99 + Decitabine; first compound 0.08 µM) was 0.378. For the same cell line, the relative viability (XMD14-99 + Decitabine; first compound 0.8 µM) was 0.41, the relative viability (XMD14-99 + Decitabine; first compound 2.53 µM) was 0.475 and the relative viability (XMD14-99 + Decitabine; first compound 8 µM) was 0.364. For the same cell line, the relative viability (AZD1208 + OSI-027; first compound 0.08 µM) was 0.665, the relative viability (AZD1208 + OSI-027; first compound 0.253 µM) was 0.885 and the relative viability (AZD1208 + OSI-027; first compound 0.8 µM) was 0.508. The relative viability (AZD1208 + OSI-027; first compound 2.53 µM) was 0.515 and the relative viability (AZD1208 + OSI-027; first compound 8 µM) was 0.47.
